Data on 11 compounds can be found in patent US20220118002A1, “COMPOSITIONS OF MATTER WITH ACTIVITY TO REMOVE LIPOFUSCIN FROM RETINAL CELLS” (Cornell University, priority 2019, published 2022).

The subject of data set [1] is Human retinal pigment epithelium (RPE) cultured cells, ARPE-19, pre-loaded with A2E. The experiment in a line: A2E (lipofuscin bisretinoid) removal assay, fluorescence plate reader. The class given is cell-based. The following applies: for removal of lipofuscin bisretinoids (A2E) from retinal cells: 4 mM cyclodextrin, 48 hrs, cells pre-loaded with 5 μM A2E, FIG. 2.
Data set [2] relates to patients diagnosed with Stargardt or AMD. The following applies: cited from earlier work.
For another data set, the system named is formation of new LB. The following applies: oral, animals; cited from earlier work.
Data set [3] relates to lipofuscin (LB) in RPE of DKO mice (ABCA4 and RDH8 mutations). Nature of the data set: In vivo LB removal from eyes by intravitreal injection, RPE-eyecup autofluorescence. Details: species or system mouse. The following applies: FIG. 9; for reduction of the amount of lipofuscin vs vehicle (significance, unpaired T-test): two intravitreal injections one week apart, same doses; for total LB extracted from retinas: two intravitreal injections one week apart: 2 μl 100 mM MβCD, 1 μl 500 mM HPβCD or SBE-βCD, eyes harvested 4 days after second injection.

A further data set concerns visual acuity of mice. Nature of the data set: Visual acuity, Spatial Frequency (SF) response by OptoMotry. The conditions noted are these: intravitreal, twice, one week apart, both eyes: 2 μl 100 mM M-βCD, 1 μl 500 mM HP-βCD or SBE-βCD, FIGS. 10A-10B.
In data set [4] the test system is Epithelial cells pre-loaded with A2E. The experiment in a line: Stoichiometric distribution of A2E between cell lysates and supernatants. The following applies: 12.5 mM, 4 hrs, serum free media, FIG. 7. The data set is classed as cell-based.
Data set [5] deals with lipofuscin and A2E accumulation in ABCA4-/- mouse. The following applies: cited from earlier work.
Data set [6] relates to lipofuscin in RPE cells of monkey retinas. The conditions noted are these: oral, one year; cited from earlier work.
In data set [7] the test system is photoreceptor layer (ONL) / retina. The experiment in a line: Retina morphometry and histology (ONL thickness, H&E cross sections). The data set is classed as in vivo, mouse. The conditions noted are these: intravitreal treatment. Here is the method:
Morphometric analysis comparing the thickneness of the outer nuclear layer (ONL) in control and SBE-BCD treated animals was performed. The layer of photoreceoptors was selected using Photoshop and ImageJ and thickness was measured.
Stitched images were created using ZEN Blue (Zeiss) from individual fields obtained by color microscopy of hematoxylin and eosin stained paraffin-embedded cross sections of retinas from mice treated with 1 μl vehicle or Sulfo Butyl β-Cyclodextrin.
2 μl 100 mM M-βCD; 1 μl 500 mM HP-3CD; or 1 μl 500 mM SBE-βCD were injected twice, one-week apart, in both eyes and 2 μl H2O were injected intravitreally to age matched controls. To evaluate the visual toxicity of the treatment, the Spatial Frequency response (SF) was determined just before each injection and before sacrificing the mouse, i.e., four days after the second injection. SF is a cone-mediated visual response measured using an OptoMotry (OMT) chamber. Briefly, the mouse standing unrestrained on an elevated platform is surrounded by computer monitors that create a virtual cylinder with black bars on white background.

The subject of the next data set is A2E-loaded RPE cultures. Nature of the data set: Fluorescence microscopy of LB removal from A2E-loaded cells. The class given is cell-based, human. Here is the method:
[…] At the end of the incubation period, fluorescence of A2E inside the cells was monitored by fluorescence microscopy at 100× magnification. Cells were stained with Hoechst stain to visualize nuclei of cells that contained A2E.
FIGS. 4A-4B show the removal of LB with methyl β-Cyclodextrin as determined by fluorescence microscopy. […] Cells were stained with Hoechst stain to visualize nuclei. Fluorescence of A2E inside the cells (unextracted cells) was monitored by fluorescence microscopy at 100× magnification.
Untreated A2E-loaded RPE cultures served as negative controls. A2E-loaded RPE cultures were treated with 7.5 mM of the indicated β-Cyclodextrin compound for 48 hrs. For each cyclodextrin, three separate lots were tested. Lipofuscin (yellow) is visualized by fluorescence microscopy (488 nm/600 nm) using low magnification (10×) objective to capture a large number of cells.
Fluorescence microscopy: LBs are auto-fluorescent molecules on account of the abundant conjugated double bonds in their hydrophobic arms. When excited at 430 nm (blue light) they emit yellow-orange fluorescence peaking at 610 nm. The intensity of the fluorescence is proportional to their amounts. Hoechst blue fluorescence dye was used to stain the nucleus of cells treated with cyclodextrins. […] Each dose was assayed in triplicated and ten random fields were evaluated per well. […]

Setting [8] is: long-term oral administration, ABCA4-/-.

As for `OC[C@H]1O[C@@H]2O[C@H]3[C@H](O)[C@@H](O)[C@@H](O[C@H]4[C@H](O)[C@@H](O)[C@@H](O[C@H]5[C@H](O)[C@@H](O)[C@@H](O[C@H]6[C@H](O)[C@@H](O)[C@@H](O[C@H]7[C@H](O)[C@@H](O)[C@@H](O[C@H]8[C@H](O)[C@@H](O)[C@@H](O[C@H]1[C@H](O)[C@H]2O)O[C@@H]8CO)O[C@@H]7CO)O[C@@H]6CO)O[C@@H]5CO)O[C@@H]4CO)O[C@@H]3CO` [β-Cyclodextrin, reference compound], the “removal of lipofuscin bisretinoids (A2E) from retinal cells” value (from here on “removal of lipofuscin bisretinoids (A2E)”) in data set [1] was “did not extract A2E”.
For `CC1=C(/C=C/C(C)=C/C=C/C(C)=C/C(=O)Nc2ccc(O)cc2)C(C)(C)CCC1` [fenretinide], in data set [2] (oral), the side effects result was “night blindness, and mild reversible skin-dryness”. Further, the “therapeutic effect in patients” value in data set [2] (patients already diagnosed with Stargardt or AMD) is listed as “did not confer a significant therapeutic effect”. Moreover, the “formation of new LB” value with formation of new LB is recorded as “effective at slowing down the formation of new LB”.
Regarding `CC(O)COC[C@H]1O[C@@H]2O[C@H]3[C@H](O)[C@@H](O)[C@@H](O[C@H]4[C@H](O)[C@@H](O)[C@@H](O[C@H]5[C@H](O)[C@@H](O)[C@@H](O[C@H]6[C@H](O)[C@@H](O)[C@@H](O[C@H]7[C@H](O)[C@@H](O)[C@@H](O[C@H]8[C@H](O)[C@@H](O)[C@@H](O[C@H]1[C@H](O)[C@H]2O)O[C@@H]8COCC(C)O)O[C@@H]7COCC(C)O)O[C@@H]6COCC(C)O)O[C@@H]5COCC(C)O)O[C@@H]4COCC(C)O)O[C@@H]3COCC(C)O` (stereo partly drawn) [2-Hydroxy Propyl β-Cyclodextrin, 2-hydroxypropyl beta-Cyclodextrin], the “reduction of the amount of lipofuscin vs vehicle (significance, unpaired T-test)” value (shortened to “reduction … (significance, unpaired T-test)”) in [3] is listed as “effective”. Moreover, the “visual acuity (Spatial Frequency response)” value in the data set with visual acuity of mice is given as “some animals showing significant impairment of visal response”. Besides, in data set [4], the “distribution of A2E fluorescence between cells and supernatants” value (shortened to “distribution”) is given as “all A2E fluorescence that was absent from cells was present in supernatants”. The “removal of lipofuscin bisretinoids (A2E)” value in [1] is “promoted removal of lipofuscin bisretinoids from retinal cells”.
For the compound `[2H]C([2H])([2H])C(/C=C/C=C(C)/C=C/C1=C(C)CCCC1(C)C)=C\COC(C)=O` [ALK-001, deuterated vitamin A], the “visual function by electroretinogram” value in data set [5] (ABCA4-/- mouse model) was “prevented the gradual loss of visual function”. In addition, in [5] (setting [8]), the “reduction of accumulation of A2E” value is 80% and the “reduction of accumulation of lipofuscin” value is recorded as 70%.
Regarding `COC[C@H]1O[C@@H]2O[C@H]3[C@H](O)[C@@H](OC)[C@@H](O[C@H]4[C@H](O)[C@@H](OC)[C@@H](O[C@H]5[C@H](O)[C@@H](OC)[C@@H](O[C@H]6[C@H](O)[C@@H](OC)[C@@H](O[C@H]7[C@H](O)[C@@H](OC)[C@@H](O[C@H]8[C@H](O)[C@@H](OC)[C@@H](O[C@H]1[C@H](O)[C@H]2OC)O[C@@H]8COC)O[C@@H]7COC)O[C@@H]6COC)O[C@@H]5COC)O[C@@H]4COC)O[C@@H]3COC` [2,6-di-O-methyl-β-Cyclodextrin, Heptakis (2,6-di-O-Methyl) β-Cyclodextrin, reference compound], the “removal of lipofuscin bisretinoids (A2E)” value in data set [1] was “not effective in promoting LB removal”.
Take `OC[C@H]1O[C@@H]2O[C@H]3[C@H](O)[C@@H](O)[C@@H](O[C@H]4[C@H](O)[C@@H](O)[C@@H](O[C@H]5[C@H](O)[C@@H](O)[C@@H](O[C@H]6[C@H](O)[C@@H](O)[C@@H](O[C@H]7[C@H](O)[C@@H](O)[C@@H](O[C@H]1[C@H](O)[C@H]2O)O[C@@H]7CO)O[C@@H]6CO)O[C@@H]5CO)O[C@@H]4CO)O[C@@H]3CO` [α-Cyclodextrin, reference compound]: the “removal of lipofuscin bisretinoids (A2E)” value in data set [1] is reported as “did not extract A2E”.
`COC[C@H]1O[C@@H]2O[C@H]3[C@H](OC)[C@@H](OC)[C@@H](O[C@H]4[C@H](OC)[C@@H](OC)[C@@H](O[C@H]5[C@H](OC)[C@@H](OC)[C@@H](O[C@H]6[C@H](OC)[C@@H](OC)[C@@H](O[C@H]7[C@H](OC)[C@@H](OC)[C@@H](O[C@H]8[C@H](OC)[C@@H](OC)[C@@H](O[C@H]1[C@H](OC)[C@H]2OC)O[C@@H]8COC)O[C@@H]7COC)O[C@@H]6COC)O[C@@H]5COC)O[C@@H]4COC)O[C@@H]3COC` [2,3,6-tri-O-methyl-β-Cyclodextrin, Heptakis (2,3,6-tri-O-Methyl) β-Cyclodextrin, reference compound]: the “removal of lipofuscin bisretinoids (A2E)” value in data set [1] is on record as “not effective in promoting LB removal”.
With `COCCO[C@@H]1c2ccn3c(C)c(C)nc3c2N[C@H](c2ccccc2)[C@H]1O` [soprazan], the “elimination of lipofuscin from RPE cells” value in data set [6] is given as “Successful elimination of lipofuscin from RPE cells”.
As for `OC[C@H]1O[C@@H]2O[C@H]3[C@H](O)[C@@H](O)[C@@H](O[C@H]4[C@H](O)[C@@H](O)[C@@H](O[C@H]5[C@H](O)[C@@H](O)[C@@H](O[C@H]6[C@H](O)[C@@H](O)[C@@H](O[C@H]7[C@H](O)[C@@H](O)[C@@H](O[C@H]8[C@H](O)[C@@H](O)[C@@H](O[C@H]9[C@H](O)[C@@H](O)[C@@H](O[C@H]1[C@H](O)[C@H]2O)O[C@@H]9CO)O[C@@H]8CO)O[C@@H]7CO)O[C@@H]6CO)O[C@@H]5CO)O[C@@H]4CO)O[C@@H]3CO` [gamma-cyclodextrin, Gamma-Cyclodextrin, reference compound], the “removal of lipofuscin bisretinoids (A2E)” value in [1] is listed as “did not extract A2E”.
On to “Sulfobutyl ether β-Cyclodextrin [Sulfo Butyl Ether β-Cyclodextrin]”, for which, in data set [3], the “reduction … (significance, unpaired T-test)” value is given as “effective” and the “total LB extracted from retinas” value came out at 42.6%. In addition, the “visual acuity (Spatial Frequency response)” value with visual acuity of mice was “well tolerated showing indistinguishable SF from water treated and non-injected negative controls”. The “distribution” value in data set [4] is “all A2E fluorescence that was absent from cells was present in supernatants”. Moreover, the “removal of lipofuscin bisretinoids (A2E)” value in [1] was “promoted removal of lipofuscin bisretinoids from retinal cells”. Also, the “overall structure of the retinas” value in data set [7] (H&E cross sections, FIG. 11B) is “remained intact”. The “integrity of the photoreceptor layer (ONL)” value in data set [7] (ONL thickness, FIG. 11A) is “did not compromise the integrity of the photoreceptor layer (ONL)”.
Regarding Methyl β-Cyclodextrin, in data set [3], the “reduction … (significance, unpaired T-test)” value is listed as “did not significantly reduce the amount of lipofuscin” and the “total LB extracted from retinas” value is listed as 18.2%. The “distribution” value in data set [4] is reported as “all A2E fluorescence that was absent from cells was present in supernatants”. For the same compound, the “removal of lipofuscin bisretinoids (A2E)” value in [1] is “promoted removal of lipofuscin bisretinoids from retinal cells”. The “dose that removed most of the detectable LB deposits” value in [1] (24 hrs, FIG. 3A) lay within 10 to 20 µM. In addition, the “dose dependence of A2E removal” value in data set [1] (24 hrs, increasing doses, FIG. 3A) is “dose-dependent”. For the same compound, the “A2E removal compared to untreated control at lowest tested dose” value in data set [1] (24 hrs, lowest tested dose, FIG. 3A) is “about 75%”. Besides, in the data set on A2E-loaded RPE cultures (7.5 mM, 100× objective, FIGS. 4A-4B), the “localisation of LB after treatment” value is recorded as “LB was expelled outside the cells”. Further, the “LB fluorescence in cells after treatment” value with A2E-loaded RPE cultures (24 hours, 100× magnification, FIG. 3B) is “completely devoid of the turquoise fluorescence”.
